Entries after “also recorded” stand apart in the source; their conditions may differ.
Legend:
β-Secretase (BACE1) = molecular target: T1, β-Secretase (BACE1) (Homo sapiens, UniProt P56817); assay: β-Secretase inhibition assay (fluorogenic substrate IV); type: biochemical; conditions: for inhibition at 25 µM: read-out: BACE1 % Inhibition (at 25 µM) (±SEM)
T1 construct: purchased Sino Biological
Description: β-Secretase enzyme was reconstituted with 50 mM Tris (pH 7.5), 10% glycerol to yield concentration of 0.5 unit/µL. The enzyme stock solution was diluted with 100 mM sodium acetate buffer (pH 4.5) to 0.01 unit/µL. Thirty microliters of enzyme solution were added to each well that contained 20 µL of 5% DMSO of test compound. Then, fifty microliters of 50 µM β-secretase substrate IV from Calbiochem were added to the reaction plate. […] The assays were run in triplicate.

[1] = Fe (II) chelation capacity assay (ferrozine)
Description: An aqueous solution of 0.2 mM ferrous sulphate was prepared. Fifty microliters of this solution was added to 96 well plate, then 40 µL of 500 µM of test compounds in 50% DMSO were added to each well followed by DI water to adjust the volume to 150 µL. The mixtures were incubated at room temperature for 10 min. After incubation, 50 µL of 1 mM ferrozine (Sigma) was added to the reaction mixture. The absorbance was measured at 562 nm by using infinite 200 pro^TM, Tecan. EDTA was used as a positive control. Chelation capacity of each compounds were calculated. Compounds having chelating capacity over than 50% were evaluated for stoichiometric ratio of compound: metal.

amyloid-β (1-42) peptide [2] = molecular target: T2, amyloid-β (1-42) peptide (Homo sapiens, UniProt P05067); assay: Amyloid β aggregation assay (ThT fluorescence); type: biochemical; conditions: Aβ(1-42), 48 h; for inhibition at 100 µM: read-out: Anti-Aβ aggregation % Inhibition (at 100 µM) (±SEM)
T2 construct: Stock solution of amyloid-β (1-42) peptide (Anaspec; 1384 µM in 1% NH4OH); purchased Anaspec
Description: Nine microliters amyloid-β solution was added to a greiner transparent 96 well plate. One microliter of each test compounds (1,000 µM in DMSO) were added to each well and mixed gently by tapping. The final concentrations of each compound were 100 µM in 10% DMSO. The reaction plate was incubated in dark at 37 °C for 48 h. After incubation, 200 µL of 5 µM ThT (Sigma) in 50 mM Tris buffer (pH 7.4) was added to each well. The fluorescence was measured at Ex = 446 nm and Em = 490 nm by using SpectraMax Gemini EM^TM [30]. The assays were run in triplicate.

SH-SY5Y cells = assay: Protection against Aβ1-42 induced neuronal cell death, MTT viability assay; type: cell-based; conditions: compound 1 μM
Description: The SH-SY5Y cells were cultured in a medium containing minimum essential medium (MEM): F-12 (1:1), 10% fetal bovine serum, MEM non-essential amino acids (0.5×), 0.5 mM sodium pyruvate and 100 units/ml of penicillin and 100 μg/mL of streptomycin. The cells were maintained under a humidified incubator with 5% CO2 in air at 37 °C.
SH-SY5Y cells were seeded in 96-well plates (2 × 10^4 cells per well) for 24 h. […] The aggregated β-amyloid was prepared by incubating in a medium without serum, penicillin and streptomycin at 37 °C for 72 h. The cells treated with aggregated β-amyloid were incubated for 24 h, 15 µL of MTT reagent (5 mg/mL MTT in serum free medium containing […]) was added to each well and incubated at 37 °C for 3 h. The medium was removed from each well. One hundred microlitres of 0.04 N HCl in isopropanol was added to each well to dissolve blue formazan crystals, which is the product of MTT catalyzed by mitochondrial dehydrogenase. The absorbance was measured at 570/630 nm using a Synergy^TM HT multi-detection microplate reader (Bio-Tek Instruments, Winooski, VT, USA).

amyloid-β (1-42) peptide [3] = molecular target: T2, amyloid-β (1-42) peptide; assay: Amyloid β aggregation assay (ThT fluorescence); type: biochemical; conditions: Aβ(1-42), read-out: Anti-Aβ aggregation IC50
[4] = Free radical scavenging assay (DPPH)
Description: The test samples were prepared in 50% DMSO at 500 µM. Seventy microliters of DPPH solution (500 µM in methanol) was added to 96 well plate. The assay mixture was adjusted to 80 µL volume by methanol. After adjusting the volume, 20 µL of test compounds was added to each well. The reaction plate was incubated at room temperature in dark for 30 min. The absorbance was measured at 517 nm by using infinite 200 pro^TM, Tecan. Ascorbic acid was used as a positive control. Percent inhibition was calculated and compounds showing activity were evaluated for the IC50 values.

T2 sequence (P05067 672-713 limits assumed): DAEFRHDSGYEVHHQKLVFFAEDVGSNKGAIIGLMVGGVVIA
T1 sequence (P56817 46-501): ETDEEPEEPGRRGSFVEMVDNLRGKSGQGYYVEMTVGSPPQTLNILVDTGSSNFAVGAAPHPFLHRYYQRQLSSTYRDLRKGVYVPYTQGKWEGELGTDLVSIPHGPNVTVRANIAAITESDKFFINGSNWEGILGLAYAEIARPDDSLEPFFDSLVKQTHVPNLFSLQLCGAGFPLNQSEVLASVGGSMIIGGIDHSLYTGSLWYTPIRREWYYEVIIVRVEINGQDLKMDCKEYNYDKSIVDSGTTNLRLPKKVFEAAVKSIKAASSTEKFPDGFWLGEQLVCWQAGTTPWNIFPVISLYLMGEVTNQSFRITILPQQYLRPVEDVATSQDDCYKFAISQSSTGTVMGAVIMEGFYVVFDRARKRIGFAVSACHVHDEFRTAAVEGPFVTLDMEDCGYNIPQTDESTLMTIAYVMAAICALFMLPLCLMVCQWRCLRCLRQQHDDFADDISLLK

inhibition at 25 µM (β-Secretase (BACE1))	inhibition at 100 µM (amyloid-β (1-42) peptide [2])	Compound	Fe chelation % Capacity (at 100 µM) (±SEM) [1]	DPPH % Inhibition (at 100 µM) (±SEM) [4]	also measured
68%		CC(C)(C)c1ccc(-c2cn(C[C@@H]3Cc4c([nH]c5ccccc45)CN3)nn2)cc1 [Compound 6a, (S)-3-((4-(4-tert-Butylphenyl)-1H-1,2,3-triazol-1-yl)methyl)-2,3,4,9-tetrahydro-1H-pyrido[3,4-b] indole]	9.67 (±0.32) %		IC50 (β-Secretase (BACE1)): 19.8 µM
78.9%	10.1%	Clc1ccc(-c2cn(C[C@@H]3Cc4c([nH]c5ccccc45)CN3)nn2)cc1Cl [Compound 6c, (S)-3-((4-(3,4-Dichlorophenyl)-1H-1,2,3-triazol-1-yl)methyl)-2,3,4,9-tetrahydro-1H-pyrido[3,4-b]-indole]	15.88 (±0.21) %		IC50 (β-Secretase (BACE1)): 18 µM
		(S)-1-(1H-Indol-3-yl)-3-(4-(6-methoxynaphthalen-2-yl)-1H-1,2,3-triazol-1-yl)propan-2-amine [Compound 12b]	10.54 (±0.22) %		BACE1 % Inhibition (at 25 µM) (±SEM) (β-Secretase (BACE1); 25 µM): 30.42 (±3.54) %; Anti-Aβ aggregation % Inhibition (at 100 µM) (±SEM) (amyloid-β (1-42) peptide [2]): 34.02 (±10.13) %
21.7%		O=C(/C=C/c1ccc(O)c(O)c1)NCc1cn(C[C@@H]2Cc3c([nH]c4ccccc34)CN2)nn1 [Compound 6h, (S)-3-((4-(N-(((E)-(3,4-Dihydroxyphenyl)propenoyl)azyl)methyl)-1H-1,2,3-triazol-1-yl)methyl)-2,3,4,9-tetrahydro-1H-pyrido[3,4-b]indole]	42.74 (±0.30) %	92.29 (±0.02) %	Protective effect against Aβ1-42 induced neuronal cell death (MTT viability) (SH-SY5Y cells): significantly greater than those of the potent single target compound, BACE1 inhibitor IV; also recorded: decrease cell death to a greater extent than BACE1 inhibitor IV; also recorded: better than that of single targeted ligands; IC50 (amyloid-β (1-42) peptide [3]): 29.9 µM; IC50 [4]: 42.9 µM
12.6%		O=C(CCc1ccc(O)cc1)NCc1cn(C[C@@H]2Cc3c([nH]c4ccccc34)CN2)nn1 [Compound 6e, (S)-3-((4-(N-(((4-Hydroxyphenyl)propanoyl)azyl)methyl)-1H-1,2,3-triazol-1-yl)methyl)-2,3,4,9-tetra-hydro-1H-pyrido[3,4-b]ind ole]	20.63 (±0.35) %	5.45 (±0.33) %	
		C[C@@H](NC(=O)c1cc(C(=O)N[C@@H](Cc2ccccc2)[C@H](O)CNC2CC2)cc(N(C)S(C)(=O)=O)c1)c1ccccc1 [Inh IV, reference compound]			Protective effect against Aβ1-42 induced neuronal cell death (MTT viability) (SH-SY5Y cells): improved cell viability
73.6%	7.19%	COc1ccc2cc(-c3cn(C[C@@H]4Cc5c([nH]c6ccccc56)CN4)nn3)ccc2c1 [Compound 6b, (S)-3-((4-(6-Methoxynaphthalen-2-yl)-1H-1,2,3-triazol-1-yl)me-thyl)-2,3,4,9-tetrahydro-1H-pyrido-[3,4-b]indole]	12.35 (±0.68) %		IC50 (β-Secretase (BACE1)): 18.9 µM
33%		N[C@@H](Cc1c[nH]c2ccccc12)Cn1cc(CNC(=O)c2ccccc2C(=O)c2ccc(O)cc2)nn1 [Compound 12d, (S)-N-((1-(2-Amino-3-(1H-indol-3-yl)propyl)-1H-1,2,3-triazol-4-yl)methyl)-2-(4-hydroxybenzoyl)-benzamide]	13.87 (±0.59) %	1.56 (±0.51) %	IC50 (amyloid-β (1-42) peptide [3]): 47.5 µM
		O=C1O[C@H]([C@@H](O)CO)C(O)=C1O [Ascorbic acid, reference compound]		53.64 (±0.11) %	IC50 [4]: 94.9 µM
		O=C(O)CN(CCN(CC(=O)O)CC(=O)O)CC(=O)O [EDTA, reference compound]	98.00 (±0.34) %		
	82.9%	COc1cc(/C=C/C(=O)CC(=O)/C=C/c2ccc(O)c(OC)c2)ccc1O [Curcumin, reference compound]			
14.1%		O=C(NCc1cn(C[C@@H]2Cc3c([nH]c4ccccc34)CN2)nn1)c1ccccc1C(=O)c1ccc(O)cc1 [Compound 6d]	32.86 (±0.19) %	2.81 (±0.37) %	
21.1%	> 50%	COc1cc(/C=C/C(=O)NCc2cn(C[C@@H]3Cc4c([nH]c5ccccc45)CN3)nn2)ccc1O [Compound 6g, (S)-3-((4-(N-(((E)-(3-Methoxy-4-hydroxyphenyl)propenoyl)azyl)methyl)-1H-1,2,3-triazol-1-yl)-methyl)-2,3,4,9-tetrahydro-1H-pyrido[3,4-b]indole]	8.88 (±0.25) %	47.03 (±0.12) %	IC50 (amyloid-β (1-42) peptide [3]): 82.9 µM; IC50 [4]: 106 µM
21.3%		O=C(NCc1cn(C[C@@H]2Cc3c([nH]c4ccccc34)CN2)nn1)c1cc(O)cc(O)c1 [Compound 6f, (S)-3-((4-(((N-(3,5-Dihydroxy)benzoyl)azyl)methyl)-1H-1,2,3-triazol-1-yl)methyl)-2,3,4,9-tetrahydro-1H-pyrido[3,4-b]indole]	5.80 (±0.04) %		melting point: 180 to 182 °C

Compound	inhibition at 25 µM (β-Secretase (BACE1))	inhibition at 100 µM (amyloid-β (1-42) peptide [2])	Fe chelation % Capacity (at 100 µM) (±SEM) [1]	DPPH % Inhibition (at 100 µM) (±SEM) [4]	also measured
N[C@@H](Cc1c[nH]c2ccccc12)Cn1cc(CNC(=O)CCc2ccc(O)cc2)nn1 [Compound 12e, (S)-N-((1-(2-Amino-3-(1H-indol-3-yl)propyl)-1H-1,2,3-triazol-4-yl)methyl)-3-(4-hydroxyphenyl)propanamide]	7.53%	36%	41.42 (±1.13) %		
N[C@@H](Cc1c[nH]c2ccccc12)Cn1cc(CNC(=O)/C=C/c2ccc(O)c(O)c2)nn1 [Compound 12h, (S,E)-N-((1-(2-Amino-3-(1H-indol-3-yl)propyl)-1H-1,2,3-triazol-4-yl)methyl)-3-(3,4-dihydroxy-phenyl)acrylamide]	40%			50.58 (±0.17) %	Protective effect against Aβ1-42 induced neuronal cell death (MTT viability) (SH-SY5Y cells): significantly greater than those of the potent single target compound, BACE1 inhibitor IV; also recorded: decrease cell death to a greater extent than BACE1 inhibitor IV; also recorded: better than that of single targeted ligands; IC50 (amyloid-β (1-42) peptide [3]): 56.4 µM; IC50 [4]: 92.7 µM
N[C@@H](Cc1c[nH]c2ccccc12)Cn1cc(-c2ccc(Cl)c(Cl)c2)nn1 [Compound 12c, (S)-1-(4-(3,4-Dichlorophenyl)-1H-1,2,3-triazol-1-yl)-3-(1H-indol-3-yl)propan-2-amine]	61.5%	> 50%			IC50 (β-Secretase (BACE1)): 20.7 µM; Protective effect against Aβ1-42 induced neuronal cell death (MTT viability) (SH-SY5Y cells): significantly greater than those of the potent single target compound, BACE1 inhibitor IV; also recorded: decrease cell death to a greater extent than BACE1 inhibitor IV; also recorded: better than that of single targeted ligands; IC50 (amyloid-β (1-42) peptide [3]): 83.2 µM
CC(C)(C)c1ccc(-c2cn(C[C@@H](N)Cc3c[nH]c4ccccc34)nn2)cc1 [Compound 12a, (S)-1-(4-(4-tert-Butylphenyl)-1H-1,2,3-triazol-1-yl)-3-(1H-indol-3-yl)propan-2-amine]	18.9%	17.8%	42.65 (±1.07) %		
